Laboratory results: ChEMBL document CHEMBL1909046, “DrugMatrix in vitro pharmacology data”

How the values were obtained:
[1] = target: T1, Muscarinic acetylcholine receptor M2 (Homo sapiens, UniProt P08172); type: cell membranes, CHO-K1, Membrane
T1 sequence (P08172 whole entry): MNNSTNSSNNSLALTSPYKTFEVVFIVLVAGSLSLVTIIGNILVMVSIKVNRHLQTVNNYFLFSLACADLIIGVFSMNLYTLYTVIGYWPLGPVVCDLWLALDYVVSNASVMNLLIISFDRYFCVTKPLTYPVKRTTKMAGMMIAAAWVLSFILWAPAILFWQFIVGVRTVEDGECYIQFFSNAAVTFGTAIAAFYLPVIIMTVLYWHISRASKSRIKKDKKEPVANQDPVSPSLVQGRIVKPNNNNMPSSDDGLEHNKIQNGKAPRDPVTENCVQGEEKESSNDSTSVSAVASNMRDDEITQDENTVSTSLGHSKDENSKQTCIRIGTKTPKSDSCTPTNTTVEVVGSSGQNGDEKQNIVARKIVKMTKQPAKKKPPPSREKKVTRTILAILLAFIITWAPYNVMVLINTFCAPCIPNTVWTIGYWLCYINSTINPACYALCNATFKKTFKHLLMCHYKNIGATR

[2] = target: T2, Glucocorticoid receptor (Homo sapiens, UniProt P04150); details: hela s3
T2 sequence (P04150 whole entry): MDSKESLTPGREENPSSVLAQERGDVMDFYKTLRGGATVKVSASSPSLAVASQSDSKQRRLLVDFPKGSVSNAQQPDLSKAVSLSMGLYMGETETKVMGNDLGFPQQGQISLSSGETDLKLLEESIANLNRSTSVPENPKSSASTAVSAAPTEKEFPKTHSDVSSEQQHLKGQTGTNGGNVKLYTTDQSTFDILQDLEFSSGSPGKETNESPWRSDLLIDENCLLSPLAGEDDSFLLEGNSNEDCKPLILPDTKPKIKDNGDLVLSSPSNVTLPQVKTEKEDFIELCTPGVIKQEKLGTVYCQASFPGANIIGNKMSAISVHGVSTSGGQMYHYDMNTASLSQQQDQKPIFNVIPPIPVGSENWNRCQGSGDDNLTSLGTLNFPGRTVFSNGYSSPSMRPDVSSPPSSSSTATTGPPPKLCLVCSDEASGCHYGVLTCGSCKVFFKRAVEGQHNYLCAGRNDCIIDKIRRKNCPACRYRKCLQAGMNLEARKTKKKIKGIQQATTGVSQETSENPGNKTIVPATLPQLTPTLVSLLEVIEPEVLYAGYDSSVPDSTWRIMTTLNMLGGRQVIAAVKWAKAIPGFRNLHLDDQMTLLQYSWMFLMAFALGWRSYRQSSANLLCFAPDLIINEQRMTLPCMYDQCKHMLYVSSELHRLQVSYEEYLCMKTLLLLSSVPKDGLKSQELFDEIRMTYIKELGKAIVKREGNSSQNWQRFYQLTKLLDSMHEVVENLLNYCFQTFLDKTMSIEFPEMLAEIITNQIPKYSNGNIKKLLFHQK

[3] = target: T3, Cytochrome P450 2C19 (Homo sapiens, UniProt P33261); details: bti-tn-5b1-4
[4] = target: Cytochrome P450 2D6 (Homo sapiens, UniProt P10635)
[5] = target: T4, Androgen receptor (Rattus norvegicus, UniProt P15207)
T4 sequence (P15207 whole entry): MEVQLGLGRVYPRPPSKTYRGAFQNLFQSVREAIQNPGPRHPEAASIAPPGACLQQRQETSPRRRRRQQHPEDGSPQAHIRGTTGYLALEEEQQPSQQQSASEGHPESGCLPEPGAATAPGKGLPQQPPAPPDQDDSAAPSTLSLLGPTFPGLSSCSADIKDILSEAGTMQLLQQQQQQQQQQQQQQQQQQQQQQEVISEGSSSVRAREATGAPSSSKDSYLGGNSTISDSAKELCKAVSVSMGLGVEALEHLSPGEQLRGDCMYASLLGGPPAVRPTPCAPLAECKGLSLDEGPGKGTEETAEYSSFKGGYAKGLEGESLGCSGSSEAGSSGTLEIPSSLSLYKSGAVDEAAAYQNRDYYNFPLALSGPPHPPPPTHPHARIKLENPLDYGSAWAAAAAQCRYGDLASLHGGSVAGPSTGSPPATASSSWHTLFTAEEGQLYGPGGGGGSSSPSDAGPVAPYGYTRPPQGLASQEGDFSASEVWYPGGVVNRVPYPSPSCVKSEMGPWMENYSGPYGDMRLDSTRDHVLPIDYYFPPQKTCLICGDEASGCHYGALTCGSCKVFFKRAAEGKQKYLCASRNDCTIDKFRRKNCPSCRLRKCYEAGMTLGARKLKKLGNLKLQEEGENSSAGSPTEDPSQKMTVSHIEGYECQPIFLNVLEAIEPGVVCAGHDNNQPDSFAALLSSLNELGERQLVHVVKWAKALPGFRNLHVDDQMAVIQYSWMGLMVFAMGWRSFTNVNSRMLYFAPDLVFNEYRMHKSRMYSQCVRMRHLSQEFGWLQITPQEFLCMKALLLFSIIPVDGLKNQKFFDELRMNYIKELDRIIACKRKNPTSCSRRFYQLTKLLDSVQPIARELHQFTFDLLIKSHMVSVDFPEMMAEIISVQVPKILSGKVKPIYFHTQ

[6] = target: T2, Glucocorticoid receptor; assay: biochemical
[7] = target: T3, Cytochrome P450 2C19
[8] = target: T4, Androgen receptor; remark: listed apart in the source
Also: in other assays of this panel Not Active means under 50% inhibition at 10 µM.

Chain of Cytochrome P450 2D6 (P10635 whole entry): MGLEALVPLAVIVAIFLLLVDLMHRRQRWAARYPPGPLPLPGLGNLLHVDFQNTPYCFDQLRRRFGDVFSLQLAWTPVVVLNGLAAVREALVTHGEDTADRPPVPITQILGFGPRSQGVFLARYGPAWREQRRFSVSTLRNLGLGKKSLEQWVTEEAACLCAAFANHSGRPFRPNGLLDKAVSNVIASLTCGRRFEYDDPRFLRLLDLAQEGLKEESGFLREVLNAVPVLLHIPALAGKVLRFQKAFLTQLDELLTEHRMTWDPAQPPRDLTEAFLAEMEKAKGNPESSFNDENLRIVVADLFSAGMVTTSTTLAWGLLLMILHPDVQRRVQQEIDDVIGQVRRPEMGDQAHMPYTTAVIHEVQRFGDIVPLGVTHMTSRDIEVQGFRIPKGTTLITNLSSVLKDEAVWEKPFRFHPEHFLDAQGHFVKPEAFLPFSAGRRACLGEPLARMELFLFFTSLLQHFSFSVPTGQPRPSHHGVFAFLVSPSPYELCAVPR
T3 sequence (P33261 whole entry): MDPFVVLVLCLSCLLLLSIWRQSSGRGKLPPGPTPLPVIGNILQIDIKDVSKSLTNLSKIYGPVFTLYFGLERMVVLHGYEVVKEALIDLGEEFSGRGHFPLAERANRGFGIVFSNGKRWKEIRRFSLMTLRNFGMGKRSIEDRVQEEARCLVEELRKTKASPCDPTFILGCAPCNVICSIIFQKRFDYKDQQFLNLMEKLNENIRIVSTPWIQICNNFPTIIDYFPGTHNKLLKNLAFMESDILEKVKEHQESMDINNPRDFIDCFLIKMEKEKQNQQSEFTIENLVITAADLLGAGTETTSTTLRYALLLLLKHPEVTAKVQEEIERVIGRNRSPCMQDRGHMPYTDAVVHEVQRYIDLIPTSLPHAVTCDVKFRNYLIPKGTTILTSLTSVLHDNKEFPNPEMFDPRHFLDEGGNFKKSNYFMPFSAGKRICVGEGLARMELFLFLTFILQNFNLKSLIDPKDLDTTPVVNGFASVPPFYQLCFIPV

N=C(Nc1ccccc1)Nc1ccccc1
IC50 ([1]; cho-k1): Not Active | IC50 [2]: Not Active | IC50 [3]: Not Active | Ki [3]: Not Active | IC50 [4]: 3440 nM

S=C=Nc1cccc2ccccc12 [1-NAPHTHYLISOTHIOCYANATE]
IC50 ([1]; cho-k1): Not Active | IC50 [5]: 25500 nM | Ki [5]: 17000 nM | IC50 [3]: Not Active | Ki [3]: Not Active | IC50 [6]: 15400 nM | Ki [6]: 7000 nM

C[C@](O)(CS(=O)(=O)c1ccc(F)cc1)C(=O)Nc1ccc(C#N)c(C(F)(F)F)c1 [(R)-BICALUTAMIDE]
IC50 ([1]; cho-k1): Not Active | IC50 [2]: Not Active | IC50 [7]: 1000 nM

CC(=O)Nc1ccc(O)cc1 [ACETAMINOPHEN]
IC50 [8]: Not Active | IC50 ([1]; cho-k1): Not Active | IC50 [3]: Not Active | Ki [3]: Not Active

COc1cc2c(c3oc(=O)c4c(c13)CCC4=O)[C@@H]1C=CO[C@@H]1O2 [AFLATOXIN]
IC50 [8]: Not Active | Ki [8]: Not Active | IC50 ([1]; cho-k1): Not Active | Ki ([1]; cho-k1): Not Active | IC50 [2]: Not Active | Ki [2]: Not Active | IC50 [3]: Not Active | Ki [3]: Not Active

Cc1cc(=O)n(-c2ccccc2)n1C [ANTIPYRINE]
IC50 [8]: Not Active | IC50 ([1]; cho-k1): Not Active | IC50 [3]: Not Active | Ki [3]: Not Active

CCCCN1CCCCC1C(=O)Nc1c(C)cccc1C.Cl (stereo unspecified) [BUPIVACAINE HYDROCHLORIDE]
IC50 [8]: Not Active | IC50 ([1]; cho-k1): Not Active | IC50 [3]: Not Active | Ki [3]: Not Active | IC50 [4]: 400 nM

O=C1CC2(CCCC2)CC(=O)N1CCCCN1CCN(c2ncccn2)CC1 [BUSPIRONE]
IC50 [8]: Not Active | IC50 ([1]; cho-k1): Not Active | IC50 [3]: Not Active | Ki [3]: Not Active

O=NN(CCCl)C(=O)NCCCl [CARMUSTINE]
IC50 [8]: Not Active | IC50 ([1]; cho-k1): Not Active | IC50 [2]: Not Active

CC(=O)OCC(=O)[C@@]1(O)CC[C@H]2[C@@H]3CCC4=CC(=O)CC[C@]4(C)[C@H]3C(=O)C[C@@]21C [CORTISONE ACETATE]
IC50 [8]: Not Active | IC50 ([1]; cho-k1): Not Active | IC50 [3]: Not Active | Ki [3]: Not Active

O=C(O)Cc1ccccc1Nc1c(Cl)cccc1Cl [DICLOFENAC]
IC50 [8]: Not Active | IC50 ([1]; cho-k1): Not Active | IC50 [3]: Not Active | Ki [3]: Not Active

C[C@H]1O[C@@H](O[C@H]2[C@@H](O)C[C@H](O[C@H]3[C@@H](O)C[C@H](O[C@H]4CC[C@@]5(C)[C@H](CC[C@@H]6[C@@H]5CC[C@]5(C)[C@@H](C7=CC(=O)OC7)CC[C@]65O)C4)O[C@@H]3C)O[C@@H]2C)C[C@H](O)[C@@H]1O [DIGITOXIN]
IC50 [8]: Not Active | IC50 ([1]; cho-k1): Not Active | IC50 [2]: Not Active | IC50 [3]: Not Active | Ki [3]: Not Active

CCN1CC(CCN2CCOCC2)C(c2ccccc2)(c2ccccc2)C1=O (stereo unspecified) [DOXAPRAM]
IC50 ([1]; cho-k1): Not Active | IC50 [2]: Not Active | IC50 [3]: Not Active | Ki [3]: Not Active | IC50 [4]: 100 nM

Cn1c(=O)c2c(ncn2CC2OCCO2)n(C)c1=O [DOXOFYLLINE]
IC50 [8]: Not Active | IC50 ([1]; cho-k1): Not Active | IC50 [3]: Not Active | Ki [3]: Not Active

C[C@]12CC[C@@H]3c4ccc(OC(=O)c5ccccc5)cc4CC[C@H]3[C@@H]1CC[C@@H]2O [ESTRADIOL BENZOATE]
IC50 ([1]; cho-k1): Not Active | IC50 [5]: 10 nM | Ki [5]: 6.98 nM | IC50 [3]: Not Active | Ki [3]: Not Active | IC50 [6]: 5070 nM | Ki [6]: 2310 nM

CC1(C)O[C@@H]2C[C@H]3[C@@H]4C[C@H](F)C5=CC(=O)C=C[C@]5(C)[C@H]4[C@@H](O)C[C@]3(C)[C@]2(C(=O)CO)O1 [FLUNISOLIDE]
IC50 ([1]; cho-k1): Not Active | IC50 [3]: Not Active | Ki [3]: Not Active | IC50 [6]: 5.33 nM | Ki [6]: 2.42 nM

CC1(C)O[C@@H]2C[C@H]3[C@@H]4C[C@H](F)C5=CC(=O)C=C[C@]5(C)[C@@]4(F)[C@@H](O)C[C@]3(C)[C@]2(C(=O)CO)O1 [FLUOCINOLONE ACETONIDE]
IC50 ([1]; cho-k1): Not Active | IC50 [3]: Not Active | Ki [3]: Not Active | IC50 [6]: 3.13 nM | Ki [6]: 1.42 nM

CC1(C)O[C@@H]2C[C@H]3[C@@H]4C[C@H](F)C5=CC(=O)CC[C@]5(C)[C@H]4[C@@H](O)C[C@]3(C)[C@]2(C(=O)CO)O1 [FLURANDRENOLIDE]
IC50 ([1]; cho-k1): Not Active | IC50 [3]: Not Active | Ki [3]: Not Active | IC50 [6]: 4.45 nM | Ki [6]: 2.02 nM

CN(C)c1ccc(C(=C2C=CC(=[N+](C)C)C=C2)c2ccc(N(C)C)cc2)cc1.[Cl-] [GENTIAN VIOLET]
IC50 ([1]; read-out: IC50): 1430 nM | Ki ([1]; read-out: Ki): 508 nM | IC50 [5]: 5570 nM | Ki [5]: 3710 nM | IC50 [2]: Not Active | IC50 [3]: Not Active | Ki [3]: Not Active | IC50 [4]: 824 nM

COc1ccc2c(c1)c(CC(=O)O)c(C)n2C(=O)c1ccc(Cl)cc1 [INDOMETHACIN]
IC50 [8]: Not Active | IC50 ([1]; cho-k1): Not Active | IC50 [2]: Not Active | IC50 [3]: Not Active | Ki [3]: Not Active

Oc1ccc(OCc2ccccc2)cc1 [MONOBENZONE]
IC50 [8]: Not Active | IC50 ([1]; cho-k1): Not Active | IC50 [2]: Not Active | IC50 [3]: Not Active | Ki [3]: Not Active

CC(C)(Oc1ccc(C2CCCc3ccccc32)cc1)C(=O)O (stereo unspecified) [NAFENOPIN]
IC50 [8]: Not Active | IC50 ([1]; cho-k1): Not Active | IC50 [2]: Not Active | IC50 [3]: Not Active | Ki [3]: Not Active

O=C(C1CCCCC1)N1CC(=O)N2CCc3ccccc3C2C1 (stereo unspecified) [PRAZIQUANTEL]
IC50 ([1]; cho-k1): Not Active | IC50 [2]: Not Active | IC50 [3]: Not Active | Ki [3]: Not Active

CCCN(CCC)C(=O)C(CCC(=O)O)NC(=O)c1ccccc1 (stereo unspecified) [PROGLUMIDE]
IC50 ([1]; cho-k1): Not Active | IC50 [2]: Not Active | IC50 [3]: Not Active | Ki [3]: Not Active

NC(=O)c1cnccn1 [PYRAZINAMIDE]
IC50 ([1]; cho-k1): Not Active | IC50 [2]: Not Active | IC50 [3]: Not Active | Ki [3]: Not Active

OC(CCN1CCCCC1)(c1ccccc1)C1CCCCC1 (stereo unspecified) [TRIHEXYPHENIDYL]
IC50 [3]: Not Active | Ki [3]: Not Active | IC50 [4]: 2450 nM

CCCC(CCC)C(=O)O [VALPROIC ACID]
IC50 ([1]; cho-k1): Not Active | IC50 [2]: Not Active | IC50 [3]: Not Active | Ki [3]: Not Active

CCC1=C[C@@H]2CN(C1)Cc1c([nH]c3ccccc13)[C@@](C(=O)OC)(c1cc3c(cc1OC)N(C)[C@H]1[C@@](O)(C(=O)OC)[C@H](OC(C)=O)[C@]4(CC)C=CCN5CC[C@]31[C@@H]54)C2 [VINORELBINE]
IC50 ([1]; cho-k1): Not Active | IC50 [2]: Not Active | IC50 [3]: Not Active | Ki [3]: Not Active

CADMIUM DICHLORIDE
IC50 [8]: Not Active | Ki [8]: Not Active | IC50 ([1]; cho-k1): Not Active | Ki ([1]; cho-k1): Not Active | IC50 [2]: Not Active | Ki [2]: Not Active | IC50 [3]: Not Active | Ki [3]: Not Active
